Source: ChEMBL document CHEMBL3853285, “Naturally Occurring Carbazole Alkaloids from Murraya koenigii as Potential Antidiabetic Agents” (J Nat Prod, 2016)
The source made the active and inactive calls. The calls are words filed in the database; no cut-off is given here.

How the values were obtained:
[1] = Activation of Akt-dependent signalling pathway in rat L6 myotubes assessed as increase in insulin-stimulated myc-tagged GLUT4-mediated 2-[3H]-deoxyglucose uptake at 25 uM incubated for 16 hrs followed by insulin stimulation for 20 mins measured for 5 mins by beta scintillation counting method relative to control
[2] = Activation of Akt-dependent signalling pathway in rat L6 myotubes assessed as increase in myc-tagged GLUT4-mediated 2-[3H]-deoxyglucose uptake at 25 uM incubated for 16 hrs measured for 5 mins by beta scintillation counting relative to control
[3] = Activation of Akt-dependent signalling pathway in rat L6 myotubes assessed as increase in myc-tagged GLUT4-mediated 2-[3H]-deoxyglucose uptake incubated for 16 hrs measured for 5 mins by beta scintillation counting
[4] = Activation of Akt-dependent signalling pathway in rat L6 myotubes assessed as induction of myc-tagged GLUT4 translocation to cell surface at 25 uM incubated for 16 hrs by O-phenylenediamide based colorimetric assay relative to control
[5] = Metabolic stability in rat liver microsomes assessed as parent compound remaining after 90 mins in presence of NADPH by HPLC analysis; type: ADME; conditions: for remaining at 1.5 h: liver microsomes, read-out: Stability
[6] = Half life in rat liver microsomes in presence of NADPH by HPLC analysis; type: ADME; conditions: for half-life: liver microsomes
Rattus norvegicus [7] = test: Antidiabetic activity in overnight fasted STZ-induced albino Sprague-Dawley rat diabetic model assessed as decrease in blood glucose level at 100 mg/kg, po measured up to 5 hrs; type: functional
Rattus norvegicus [8] = test: Antidiabetic activity in overnight fasted STZ-induced albino Sprague-Dawley rat diabetic model assessed as decrease in blood glucose level at 100 mg/kg, po measured up to 24 hrs; type: functional
[9] = Metabolic stability in rat liver microsomes assessed as drug degradation rate constant incubated for 90 mins by HPLC analysis; type: ADME; conditions: 1.5 h
Mus musculus [10] = test: Antidiabetic activity in leptin receptor deficient db/db C57BL/KSJ mouse assessed as decrease in fasting blood glucose level administered for 15 consecutive days relative to control; type: functional
Mus musculus [11] = test: Antidiabetic activity in leptin receptor deficient db/db C57BL/KSJ mouse assessed as decrease in postprandial blood glucose level at 30 mg/kg, po for 15 consecutive days measured on day 8 post dose; type: functional, organism-based
Mus musculus [12] = test: Antidiabetic activity in overnight fasted leptin receptor deficient db/db C57BL/KSJ mouse assessed as reduction in postprandial blood glucose AUC at 30 mg/kg, po administered on day 15 post glucose challenge measured up to 120 mins by oral glucose tolerance test relative to control; type: functional
Mus musculus [13] = test: Antidiabetic activity in overnight fasted leptin receptor deficient db/db C57BL/KSJ mouse assessed as reduction in postprandial blood glucose AUC at 30 mg/kg, po administered on day 10 post glucose challenge measured up to 120 mins by oral glucose tolerance test relative to control; type: functional
Mus musculus [14] = test: Reversal of insulin resistance in leptin receptor deficient db/db C57BL/KSJ mouse assessed as decrease in serum insulin level administered for 15 consecutive days relative to control; type: functional
Rattus norvegicus [15] = organism: Rattus norvegicus; test: Induction of Akt phosphorylation at Ser-473 residue in rat L6 myotubes over-expressing myc-tagged GLUT4 at 25 uM incubated for 16 hrs by Western blot analysis
Rattus norvegicus [16] = organism: Rattus norvegicus; test: Induction of Akt phosphorylation at Ser-473 residue in rat L6 myotubes over-expressing myc-tagged GLUT4 at 50 uM incubated for 16 hrs followed by insulin stimulation for 20 mins by Western blot analysis
Mus musculus [17] = test: Reversal of insulin resistance in leptin receptor deficient db/db C57BL/KSJ mouse assessed as improvement in HOMA index administered for 15 consecutive days relative to control; type: functional
[18] = AUC (0 to infinity) in Sprague-Dawley rat plasma at 100 mg/kg, po administered as single dose measured up to 48 hrs post dose by LC-MS/MS analysis; type: ADME, organism-based; design: dose 100 mg/kg, route oral, time infinity
[19] = Cmax in Sprague-Dawley rat plasma at 100 mg/kg, po administered as single dose measured up to 48 hrs post dose by LC-MS/MS analysis; type: ADME, organism-based; design: dose 100 mg/kg, route oral
[20] = Tmax in Sprague-Dawley rat plasma at 100 mg/kg, po administered as single dose by LC-MS/MS analysis; type: ADME, organism-based
[21] = Activation of Akt-dependent signaling pathway in rat L6 myotubes assessed as increase in myc-tagged GLUT4-mediated 2-[3H]-deoxyglucose uptake at 10 uM incubated for 16 hrs measured for 5 mins by beta scintillation counting method relative to control
[22] = Activation of Akt-dependent signalling pathway in rat L6 myotubes assessed as induction of myc-tagged GLUT4 translocation to cell surface at 10 uM incubated for 16 hrs by O-phenylenediamide based colorimetric assay relative to control
Mus musculus [23] = test: Antidiabetic activity in leptin receptor deficient db/db C57BL/KSJ mouse assessed as decrease in postprandial blood glucose level at 10 mg/kg, po for 15 consecutive days measured on day 7 to 14 post dose; type: functional, organism-based
Mus musculus [24] = test: Antidiabetic activity in overnight fasted leptin receptor deficient db/db C57BL/KSJ mouse assessed as reduction in postprandial blood glucose AUC at 10 mg/kg, po administered on day 10 post glucose challenge measured up to 120 mins by oral glucose tolerance test relative to control; type: functional
Mus musculus [25] = test: Antidiabetic activity in overnight fasted leptin receptor deficient db/db C57BL/KSJ mouse assessed as reduction in postprandial blood glucose AUC at 10 mg/kg, po administered on day 15 post glucose challenge measured up to 120 mins by oral glucose tolerance test relative to control; type: functional

Row | SMILES | fold change (FC) [1] | fold change (FC) [2] | Activity [3] | fold change (FC) [4] | remaining at 1.5 h [5] [%] | half-life [6] [h] | inhibition in vivo at 100 mg/kg (Rattus norvegicus [7]) [%] | inhibition in vivo at 100 mg/kg (Rattus norvegicus [8]) [%] | K [9] [min⁻¹] | other results
1 | COc1ccc2c(c1)[nH]c1c3c(c(C)cc12)OC(C)(C)C=C3 | 2.7 | 1.34 | Dose-dependent effect | 1.33 | 67 | 2.83 | 24.6 | 30.3 | 0.004 | 
2 | COc1cc2[nH]c3c4c(c(C)cc3c2cc1OC)OC(C)(C)C=C4 | 2.41 | 1.42 | Dose-dependent effect | 1.29 | 79 | 3.11 | 22.5 | 30 | 0.003 | inhibition (INH) (Mus musculus [10]): 40.5%; inhibition (Mus musculus [11]): Active; inhibition in vivo at 30 mg/kg (Mus musculus [12]): 28.5%; inhibition in vivo at 30 mg/kg (Mus musculus [13]): 21.8%; inhibition (INH) (Mus musculus [14]): 17.2%; Activity (Rattus norvegicus [15]): Active; Activity (Rattus norvegicus [16]): Active; Activity (Mus musculus [17]): 44.3%; AUC(0-inf) [18]: 23 µM·h; Cmax [19]: 2820 nM; Tmax [20]: 4 h
3 | CN(CCOc1ccc(CC2SC(=O)NC2=O)cc1)c1ccccn1 (configuration not stated) | 2.75 |  | Dose-dependent effect |  |  |  |  |  |  | fold change (FC) [21]: 1.45; fold change (FC) [22]: 1.38
4 | COc1ccc2[nH]c3c4c(c(C)cc3c2c1)OC(C)(C)C=C4 [KOENIMBINE] | 2.54 | 1.41 | Dose-dependent effect | 1.44 | 58 | 2.21 | 15.5 | 19.8 | 0.005 | AUC(0-inf) [18]: 9.45 µM·h; Cmax [19]: 1810 nM; Tmax [20]: 0.83 h
5 | CN(C)C(=N)NC(=N)N [METFORMIN] |  |  |  |  |  |  | 25.9 | 36 |  | 
6 | CCc1ccc(CCOc2ccc(CC3SC(=O)NC3=O)cc2)nc1 (configuration not stated) [PIOGLITAZONE] |  |  |  |  |  |  |  |  |  | inhibition (INH) (Mus musculus [10]): 62.4%; inhibition (Mus musculus [23]): Active; inhibition in vivo at 10 mg/kg (Mus musculus [24]): 30.2%; inhibition in vivo at 10 mg/kg (Mus musculus [25]): 41.4%; inhibition (INH) (Mus musculus [14]): 32.3%; Activity (Mus musculus [17]): 74.6%
7 | CC(C)=CCC[C@]1(C)C=Cc2c(c(C)cc3c2[nH]c2ccccc23)O1 | 2.68 | 1.26 | Dose-dependent effect | 1.41 |  |  | 19.3 | 23.3 | 0.088 | Stability ([5]; microsomes, 1.5 h): 61%; t1/2 ([6]; microsomes): 7.8 min
